PMC8478281, “Targeting the FtsZ Allosteric Binding Site with a Novel Fluorescence Polarization Screen, Cytological and Structural Approaches for Antibacterial Discovery” (Journal of Medicinal Chemistry, 2021)
In brackets after ≈: the same amount, converted by molar mass. Several values for one entry are separate records, joined by “and”; a condition that tells them apart may be missing. Identical values can stand only once. Like-named read-outs stand apart in the source and are kept apart here.

Tests used:
[1] = target: T1, stabilized FtsZ-GMPCPP polymers (Bacillus subtilis, UniProt P17865); test: Fluorescence anisotropy screen with probe (S)-2 at two compound concentrations; assay type: binding; details: probe (S)-2 3 μM, compound 20 and 200 μM
T1 construct: made in house
T1 sequence (P17865 whole entry): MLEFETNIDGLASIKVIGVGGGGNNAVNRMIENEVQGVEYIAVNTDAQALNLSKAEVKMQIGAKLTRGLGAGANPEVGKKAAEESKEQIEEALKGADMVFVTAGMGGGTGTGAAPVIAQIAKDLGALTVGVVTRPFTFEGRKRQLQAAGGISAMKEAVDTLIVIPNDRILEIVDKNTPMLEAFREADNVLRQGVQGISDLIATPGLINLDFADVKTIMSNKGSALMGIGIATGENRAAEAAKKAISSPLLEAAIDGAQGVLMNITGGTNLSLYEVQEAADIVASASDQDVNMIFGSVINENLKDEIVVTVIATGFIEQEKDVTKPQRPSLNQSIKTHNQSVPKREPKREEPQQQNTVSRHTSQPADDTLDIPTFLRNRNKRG
Method: Once the fluorescence method for ligand binding into the interdomain cleft was set up, we evaluated its potential to screen for FtsZ allosteric inhibitors. Complementary to this screen, cytological profiling tests of the identified binders allow ascertaining their ability to target FtsZ in bacterial cells. Fluorescence anisotropy measurements of probe (S)-2 at two concentrations of each tested compound (20 and 200 μM) were acquired; the solubility range of positively testing compounds was determined spectrophotometrically. […] The promiscuous inhibitors resveratrol,[40] plumbagin,[41] and tiplaxtinin[42] […] It should be noticed that aggregating compounds may sequester the protein or the probe or may scatter highly polarized light, potentially interfering with the fluorescence anisotropy measurements. Colored and fluorescent compounds can also interfere. Compounds initially testing positive in the anisotropy screen should thus be checked for any unexpected changes of the total fluorescence intensity in the same samples, as well as for any artefactual effects on replicates omitting FtsZ.
(§1) Figure 4 Fluorescence anisotropy screen for FtsZ allosteric inhibitors combined with cell-based methods. (A) Screen for FtsZ inhibitors employing the fluorescence anisotropy of probe (S)-2 (3 μM) and stabilized FtsZ-GMPCPP polymers (8 μM binding sites). The anisotropy values of the partially bound probe (void black circles), the free probe (void gray circles), and the values with two concentrations of each compound, 20 μM (gray circles) and 200 μM (black circles) are shown. Control values with the corresponding concentrations of dimethyl sulfoxide (DMSO) vehicle (2% void and gray circles; 4%, black circle) are also shown. (B) Chemical structures of synthetic ligands 6–26. (C) Effects of low-affinity inhibitors 6, 7, and 9 on B. subtilis 168 cell division. Raw data plots (n ≥ 30) are shown with the mean values marked (statistics in Table S2). The cells were incubated for 3 h with each compound, and cell lengths were measured. (D) Representative phase-contrast images of cells after 3 h with 7 or 9 (0.75 mM each). (E) Cellular localization of FtsZ-GFP in B. subtilis SU570 following growth for 1.5 h in the absence (inset) and presence of 7 (0.2 mM). Bars, 10 μm.
(§2) Competition assays were performed by measuring, through the decrease in fluorescence anisotropy, the displacement of the fluorescent probes from stabilized FtsZ polymers. Increasing concentrations of competing ligands were added to the mixtures of cross-linked FtsZ polymers (10–15 μM) with probe 1 (3 μM), 7–8 μM FtsZ polymers with probe (S)-2 (3 μM), or 2–3 μM FtsZ polymers with (R)-5 (3 μM). HEPES buffer with 10 mM MgCl2 and 0.1 mM GMPCPP was employed, with a final volume of 0.5 mL, and the anisotropy measured at 25 °C. Under these conditions, the initial fraction of the probe bound was between 0.4 and 0.5. The fraction of the probe bound (Vb) was calculated [drawing 1] where rfree and rmax are the anisotropy values of the free and bound probes, respectively, and R is the ratio between the fluorescence intensities of the bound and free probe (Table S1). The binding data were plotted against the competing ligand concentration and fitted by competition equilibrium of the ligand and the probe for the same binding site. The resulting system of equations[50] was numerically solved using the Equigra v. 5.0 program,[33] which provided the best-fitted value of the competitor binding constant.

[2] = system: S. aureus Mu50; test: Minimal division inhibitory concentration, S. aureus Mu50; assay type: cell-based; details: Staphylococcus aureus, MU50, read-out: MDC S. aureus Mu50
Method: (§3) B. subtilis 168 and Staphylococcus spp. were grown in cation adjusted Mueller–Hinton broth (CAMHB; Becton, Dickinson and Company) at 37 °C. B. subtilis SU570 were grown in the same medium at 30 °C. In all cases, the cells were grown to an absorbance of 0.1–0.2 at 600 nm and then incubated either with the compounds or DMSO vehicle. Microscopy assays and cell measurement were performed as previously described.[31] MIC values were determined by a broth macrodilution method.[51] MBC values were determined as the lowest concentration of inhibitor at which there was a 99.9% reduction in colony-forming units/mL compared to the inoculum. To construct a S. aureus strain expressing FtsZ-mCherry, the plasmid pCN-ftsZmch[9] was electroporated into RN4220 and 0.1 μM cadmium chloride (Sigma-Aldrich) was used to induce the expression of the construct under the control of the Pcad promoter.

[3] = system: B. subtilis; test: Minimal growth inhibitory concentration (broth macrodilution), B. subtilis; assay type: cell-based, Bacillus subtilis; details: Bacillus subtilis, read-out: MIC B. subtilis
Method: as §3

[4] = target: T2, stabilized polymers of FtsZ from B. subtilis (Bacillus subtilis, UniProt P17865); test: Competition assay: displacement of probe (R)-5 from stabilized BsFtsZ-GMPCPP polymers; assay type: binding; details: stabilized polymers of FtsZ from B. subtilis, probe (R)-5, mean ± SEM
T2 construct: made in house
T2 sequence (P17865 whole entry): as above
Method: (§4) FtsZ (10–15 μM) was assembled in HEPES buffer, 10 mM MgCl2, 50 μM GMPCPP at 25 °C for 10 min, and then 0.15% (v/v) glutaraldehyde[36] (distilled grade for microscopy, TAAB Laboratories, U.K.) was added to the solution that was incubated at 25 °C for 10 min more. (This was the minimal glutaraldehyde concentration determined to stabilize FtsZ polymers specifically binding probe 1.) The remains of the cross-linking agent were quenched by adding 60 mM NaBH4, the sample was incubated on ice for 10 min and degassed.[36] Cross-linked polymers were centrifuged for 10 min at 8200g (5000 rpm) and 4 °C in 15 mL Falcon tubes employing a Rotina 380R (Hettich) centrifuge, the supernatant was removed and the pellet was resuspended in the same volume of HEPES buffer, 10 mM MgCl2, containing 5 μM GMPCPP. Fixed FtsZ polymers were active in binding assays after more than 2 days at 4 °C; they could also be frozen in liquid nitrogen with a small loss of binding capacity. […] Cross-linked polymers of SaFtsZ were similarly prepared.
as §2

[5] = system: B. subtilis; test: Minimal division inhibitory concentration and cell division phenotype, B. subtilis; assay type: cell-based, Bacillus subtilis; details: for minimal effective concentration: Bacillus subtilis, read-out: MDC B. subtilis
Method: as §3

[6] = Solubility in HEPES buffer with 2% DMSO, spectrophotometric; assay type: physicochemical; details: HEPES buffer containing 2% DMSO, 25 °C, aqueous buffer, kinetic from dmso stock; HEPES buffer pH 6.8 containing 2% DMSO
Method: 3.2. Solubility of Compounds. Stock solutions of compounds were prepared in
DMSO (spectroscopic grade, Merck) a nd stored at -20 °C. Compound solubility in 50
mM HEPES-KOH, 50 mM KCl, 1 mM EDTA, pH 6.8 (HEPES buffer) containing 2%
DMSO was determined spectrophotometrically, monitoring the linear correlation
between the absorbance and the compound concentration and the absence of light
scattering. The solutions were optionally centrifuged at 100000 rpm for 20 min at 25 °C
in a TLA100 rotor with a Beckman Optima Max -XP ultracentrifuge.

[7] = system: S. aureus Mu50; test: Minimal growth inhibitory concentration (broth macrodilution), S. aureus Mu50; assay type: cell-based, Staphylococcus aureus; details: Staphylococcus aureus, MU50, read-out: MIC S. aureus Mu50
Method: as §3

[8] = target: T3, stabilized FtsZ-GMPCPP polymers (BsFtsZ) (Bacillus subtilis, UniProt P17865); test: Competition assay: displacement of probe (S)-2 from stabilized FtsZ-GMPCPP polymers; assay type: binding; details: for Kd: (S)-2 3 μM, 8 μM binding sites
T3 construct: made in house
T3 sequence (P17865 whole entry): as above
Method: as §4, §2

[9] = system: B. subtilis 168; test: Cell length of B. subtilis 168 incubated with FtsZ inhibitors; assay type: cell-based, Bacillus subtilis; design: unit not given here; details: B. subtilis 168, 3 h, mean and standard error, n ≥ 30
Method: as §1, with “The anisotropy values of the partially bound probe (void black circles), the free probe (void gray circles), and the values with two concentrations of each compound, 20 μM (gray circles) and 200 μM (black circles) are shown.” left out, “(B) Chemical structures of synthetic ligands 6–26. (C) Effects of low-affinity inhibitors 6, 7, and 9 on B. subtilis 168 cell division.” left out
as §3, with “MBC values were determined as the lowest concentration of inhibitor at which there was a 99.9% reduction in colony-forming units/mL compared to the inoculum.” left out, “promoter. […]” for “promoter.”

SMILES: O=C(Oc1cc(OC(=O)c2cc(O)cc(O)c2)c2ccccc2c1)c1ccc(O)c(O)c1 [UCM44]
- result of the anisotropy screen, in words [1]: marginal inhibitory effect

SMILES: NC(=O)c1c(F)ccc(OCCCc2cccc(C(F)(F)F)c2)c1F [Compound 23]
- minimal effective concentration [2]: 25 µM
- MIC [3]: 10 µM (≈ 3.59 µg/mL)
- Kd ([4]; read-out: KD): 1.5 ± 0.1 µM
- minimal effective concentration [5]: 5 µM
- solubility [6]: 50 µM (≈ 18 µg/mL)
- MIC [7]: 50 µM (≈ 18 µg/mL)

SMILES: CN(C)CCC(Oc1ccc(F)c(C(N)=O)c1F)c1cccc(C(F)(F)F)c1 (stereo not shown) [Compound 24]
- minimal effective concentration [2]: > 100 µM
- MIC [3]: > 100 µM
- Kd ([4]; KD): 145 ± 10 µM
- minimal effective concentration [5]: > 50 µM
- solubility [6]: > 1000 µM
- MIC [7]: > 100 µM

SMILES: Oc1ccc(/C=C/c2cc(O)cc(O)c2)cc1 [resveratrol, reference compound]
- result of the anisotropy screen, in words [1]: weakly modified anisotropy and total fluorescence intensity
- inhibition of B. subtilis cell division, in words [5]: none of them impaired B. subtilis cell division

SMILES: CN(Cc1cccc(Cl)c1)c1ccc(C(N)=O)cc1 [Compound 10]
- result of the anisotropy screen, in words [1]: weak binders
- Kd [8]: 250 µM and ~200 µM
- solubility [6]: ≥ 100 µM

SMILES: O=C(O)CCN(Cc1ccccc1)Cc1cccc(Sc2ccccc2)c1 [PC170942]
- result of the anisotropy screen, in words [1]: no evidence of binding

SMILES: CC1=CC(=O)c2c(O)cccc2C1=O [plumbagin, reference compound]
- result of the anisotropy screen, in words [1]: weakly modified anisotropy and total fluorescence intensity
- inhibition of B. subtilis cell division, in words [5]: none of them impaired B. subtilis cell division

SMILES: COc1ccc(F)c(C(N)=O)c1F [DFMBA, 2,6-difluoro-3-methoxybenzamide, reference compound]
- Kd [8]: 670 ± 50 µM

SMILES: CN(Cc1cccc(Cl)c1)c1cccc(C(N)=O)c1 [Compound 7]
- length ([9]; 0.5 mM): 8.5 ± 0.3
- length ([9]; 0.75 mM): 24.7 ±0.8
- result of the anisotropy screen, in words [1]: weak binders
- Kd [8]: 159 µM and ~200 µM
- fold lower concentration inhibiting B. subtilis division than 3-methoxybenzamide ([5]; 3-methoxybenzamide value from ref 44): ~20 fold
- solubility [6]: ≥ 100 µM

SMILES: NC(=O)c1c(F)ccc(OCCc2cccc(C(F)(F)F)c2)c1F [Compound 22]
- minimal effective concentration [2]: 100 µM
- MIC [3]: 50 µM (≈ 17.3 µg/mL)
- Kd ([4]; read-out: KD): 5.9 ± 0.4 µM
- minimal effective concentration [5]: 15 µM
- solubility [6]: > 100 µM
- MIC [7]: 200 µM (≈ 69.1 µg/mL)

SMILES: NC(=O)c1cccc(NCc2cccc(Cl)c2)c1 [Compound 6]
- length ([9]; 0.5 mM): 5.9 ± 0.3
- length ([9]; 0.75 mM): 8.0 ± 0.2
- result of the anisotropy screen, in words [1]: weak binders
- Kd [8]: 233 µM and ~200 µM
- solubility [6]: ≥ 100 µM

SMILES: OCc1nc2cc(Cl)cnc2s1 [CTPM, 6-(chloro[1,3]thiazolo[5,4-b]pyridin-2-yl)methanol, reference compound]
- Kd [8]: 1000 ± 100 µM

SMILES: NC(=O)c1ccc(NCc2cccc(Cl)c2)cc1 [Compound 9]
- length ([9]; 0.5 mM): 6.1 ± 0.3
- length ([9]; 0.75 mM): 11.6 ±0.4
- result of the anisotropy screen, in words [1]: weak binders
- Kd [8]: 196 µM and ~200 µM
- solubility [6]: ≥ 100 µM

SMILES: Nc1nc2c(ncn2[C@@H]2O[C@H](COP(=O)(O)OP(=O)(O)O)[C@@H](O)[C@H]2O)c(=O)[nH]1 [GDP, guanosine diphosphate, reference compound]
- displacement of (S)-2 from its binding site, in words ([8]; negative control): does not displace

SMILES: O=C(O)C(=O)c1cn(Cc2ccccc2)c2ccc(-c3ccc(OC(F)(F)F)cc3)cc12 [tiplaxtinin, reference compound]
- result of the anisotropy screen, in words [1]: weakly modified anisotropy and total fluorescence intensity
- inhibition of B. subtilis cell division, in words [5]: none of them impaired B. subtilis cell division

SMILES: CCN(CC)CCNc1nc(/C=C/c2ccc(Cl)cc2)nc2cc3ccccc3cc12 [zantrin Z3]
- result of the anisotropy screen, in words [1]: no evidence of binding
